The source of these data is article PMC4567403 (Bioorganic & medicinal chemistry letters, 2015).

Data set [1] can be described thus: Microsomal intrinsic clearance, mouse. The format is in vitro ADME. Conditions: in words.
The nature of data set [2]: Microsomal intrinsic clearance, human. The format is in vitro ADME. The note with it: human microsomal studies, in words.
The target in data set [3] is T1, P450 1A2 (Homo sapiens, UniProt P05177).
T1 sequence (P05177 1-516): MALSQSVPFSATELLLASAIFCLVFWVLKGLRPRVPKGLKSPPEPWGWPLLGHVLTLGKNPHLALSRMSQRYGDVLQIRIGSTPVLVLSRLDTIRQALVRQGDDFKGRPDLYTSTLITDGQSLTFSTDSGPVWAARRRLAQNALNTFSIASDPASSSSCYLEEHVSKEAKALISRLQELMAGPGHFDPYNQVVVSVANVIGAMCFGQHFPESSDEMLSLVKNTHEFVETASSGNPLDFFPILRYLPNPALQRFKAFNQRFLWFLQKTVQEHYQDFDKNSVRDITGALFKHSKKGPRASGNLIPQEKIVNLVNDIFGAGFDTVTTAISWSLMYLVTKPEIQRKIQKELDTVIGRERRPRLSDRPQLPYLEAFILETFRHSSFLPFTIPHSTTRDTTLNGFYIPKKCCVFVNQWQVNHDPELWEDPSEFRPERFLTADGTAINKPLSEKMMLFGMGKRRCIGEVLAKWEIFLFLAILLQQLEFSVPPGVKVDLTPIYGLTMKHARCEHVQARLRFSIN
Kind of data set: P450 inhibition 1A2. The note with it: 1A2, at 30 μM. The format is in vitro ADME.

For data set [4], the target named is P450 2C9 (Homo sapiens, UniProt P11712). The data set is described as follows: P450 inhibition 2C9. The format is in vitro ADME. The note with it: 2C9, at 30 μM.
Chain of P450 2C9 (P11712 whole entry): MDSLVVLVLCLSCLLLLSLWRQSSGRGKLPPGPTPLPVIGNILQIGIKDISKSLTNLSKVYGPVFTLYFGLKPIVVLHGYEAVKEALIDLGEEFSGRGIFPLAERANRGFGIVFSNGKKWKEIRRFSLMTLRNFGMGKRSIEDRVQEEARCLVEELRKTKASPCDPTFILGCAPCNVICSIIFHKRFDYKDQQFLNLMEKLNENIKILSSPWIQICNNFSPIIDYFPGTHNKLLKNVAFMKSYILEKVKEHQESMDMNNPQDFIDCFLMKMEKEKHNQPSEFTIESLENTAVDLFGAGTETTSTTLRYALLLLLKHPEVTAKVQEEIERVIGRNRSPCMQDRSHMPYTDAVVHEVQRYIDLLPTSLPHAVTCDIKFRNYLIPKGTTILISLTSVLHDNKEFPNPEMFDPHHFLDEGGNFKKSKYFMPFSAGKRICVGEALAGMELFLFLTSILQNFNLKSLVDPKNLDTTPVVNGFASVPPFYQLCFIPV
In data set [5] the target is P450 2D6 (Homo sapiens, UniProt P10635). Kind of data set: P450 inhibition 2D6. The format is in vitro ADME. The note with it: 2D6, at 30 μM.
Chain of P450 2D6 (P10635 whole entry): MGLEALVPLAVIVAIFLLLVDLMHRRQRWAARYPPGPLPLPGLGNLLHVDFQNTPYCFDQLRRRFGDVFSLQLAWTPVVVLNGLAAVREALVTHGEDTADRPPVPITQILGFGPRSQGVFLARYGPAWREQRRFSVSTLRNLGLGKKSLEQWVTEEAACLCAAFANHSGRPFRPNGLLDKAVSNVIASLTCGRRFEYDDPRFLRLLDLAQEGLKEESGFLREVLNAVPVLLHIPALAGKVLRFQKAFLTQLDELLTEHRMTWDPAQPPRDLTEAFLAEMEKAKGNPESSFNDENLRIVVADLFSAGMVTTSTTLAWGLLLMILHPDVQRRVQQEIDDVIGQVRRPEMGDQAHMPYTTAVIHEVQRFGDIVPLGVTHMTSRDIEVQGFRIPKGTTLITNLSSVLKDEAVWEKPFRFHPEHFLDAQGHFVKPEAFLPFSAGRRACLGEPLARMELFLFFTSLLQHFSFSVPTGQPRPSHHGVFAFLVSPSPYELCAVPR
Data set [6] deals with P450 3A4 (Homo sapiens, UniProt P08684). Kind of data set: P450 inhibition 3A4. The format is in vitro ADME. The note with it: 3A4, at 30 μM.
Chain of P450 3A4 (P08684 whole entry): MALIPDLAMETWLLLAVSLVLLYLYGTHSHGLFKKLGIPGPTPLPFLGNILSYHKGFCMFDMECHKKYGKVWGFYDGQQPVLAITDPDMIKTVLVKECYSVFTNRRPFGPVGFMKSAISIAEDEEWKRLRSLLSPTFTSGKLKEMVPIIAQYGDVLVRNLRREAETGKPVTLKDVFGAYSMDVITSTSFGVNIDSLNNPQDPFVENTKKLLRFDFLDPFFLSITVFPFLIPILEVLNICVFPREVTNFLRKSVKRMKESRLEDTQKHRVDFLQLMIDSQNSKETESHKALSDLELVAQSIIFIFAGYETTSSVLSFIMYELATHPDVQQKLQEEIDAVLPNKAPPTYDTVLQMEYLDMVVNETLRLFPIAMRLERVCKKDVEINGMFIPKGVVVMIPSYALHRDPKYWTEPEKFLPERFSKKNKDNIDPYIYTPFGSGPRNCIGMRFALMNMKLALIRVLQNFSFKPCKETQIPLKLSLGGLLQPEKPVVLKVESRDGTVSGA
Data set [7] is described as follows: Pharmacokinetics in rat. The format is in vivo, male Sprauge- Dawley rats.
In data set [8] the test system is SW620 cell lines. The note with it: cited from earlier work.
Data set [9] relates to e-cadherin expression in SW620 cells. Kind of data set: In-Cell-Western. Conditions: 10 μM compound, average of two assessments. The format is cell-based.

Turning to `O=C(NCCCCNC(=O)c1cccnc1O)c1cc(-c2ccccc2)on1` [11r], in data set [1], the mouse clearance result is “well in excess of hepatic blood flow”. For the same molecule, the intrinsic clearance result in data set [2] is on record as “neglible”. For the same molecule, the “inhibition of P450 isozyme” value in [3], in data set [4], in data set [5] and in data set [6] was “No inhibition” each time. The exposure result in data set [7] (IV and IP dosing) is recorded as “suitable”. The half life result in data set [7] (IV dose in rat, 1 mg/kg) is recorded as “long”. For the same molecule, the EMT phenotype entry in data set [8] is “capable of reversing the EMT phenotype”. Besides, the invasive potential result in [8] is “reducing the invasive potential”.
As for `O=C(NCCCn1ccnc1)c1noc2ccccc12` [compound 3], in data set [9], the “Fold change of e-cadherin expression” value is listed as “failed to demonstrate significant restoration”.
The same measure, in the same setting: the value for `O=C(NCCCN1CCOCC1)c1n[nH]c2ccccc12` [compound 4] was “failed to demonstrate significant restoration”.
On the same count and under the same terms, as for `Cn1nc(C(=O)NCCCCc2ccncc2)cc1-c1ccccc1` [compound 5], the entry is “failed to demonstrate significant restoration”; as for `Cc1c(C(=O)NCCCCc2ccncc2)nn(C)c1-c1ccccc1` [compound 6], “failed to demonstrate significant restoration”; as for `CC(CNC(=O)c1cc(-c2cccs2)on1)c1ccncc1` (stereo not drawn) [compound 7], “failed to demonstrate significant restoration”.
